Measurements: patent publication US20210147932A1, “FLUORESCENT PROBES FOR QUANTIFICATION OF DNA DAMAGE AND REPAIR” (The Board of Trustees of the Leland Stanford Junior …, priority 2019, published 2021)

Assays:
Format in all cases: biochemical
[1] = tested on: DNA AP site (AP site containing DNA, oligo 15); assay: Fluorescence response of probe covalently attached to the AP site of a DNA hairpin
Description: FIG. 2B provides emission spectra of oligonucleotide-probe conjugates compared to the emission spectra of the free probe at 2 μM concentration in 50 mM Tris buffer pH 7.0. Excitation was at 470 nm for Compound (1) (also referred to herein as CCVJ1) and 450 nm for Compounds 8 and 9 (also referred to herein as NP1 and NP2) and Compounds 4 and 6 (also referred to herein as BD1 and BD2).
To assess the potential fluorescence response of each probe, a 17mer DNA hairpin containing a single AP site was prepared and reacted it with a 10-fold excess of probe overnight. The subsequent DNA-probe conjugates were precipitated to remove excess fluorophore and full DNA labelling was confirmed by MALDI-TOF mass spectrometry (Table 1). The reacted DNAs were re-suspended in buffer to a concentration of 2 μM and the emission spectra compared with the spectra of the free probes in solution. […] In addition to its large fluorescence response, CCVJ1 is accessed readily through a facile 4-step synthesis and has good spectral overlap with fluorescein. This makes the probe accessible to a wide range of researchers and well suited to the majority of fluorescence-based instruments.
In addition to the 5′ and 3′ neighboring bases, studies were done of the effect of the orphaned base Z paired opposite the abasic site on the UBER probe system (FIG. 10, panels C-D). Using the sequence where X=C and Y=G, the identity was varied of the base Z opposite the AP site. […] As a result, the smaller pyrimidine bases yielded a greater fluorescence light up response than the larger purine bases. It was also observed a strong effect by the opposing base on the rate of oxime formation (FIG. 10, panel D). […] This trend is in contrast to the neighboring base effect discussed above in which stronger stacking bases accelerated the rate of oxime formation.
General procedure for creating AP site DNA: A deoxyuridine containing oligonucleotide (typically 5-20 μM) was treated with 10 U/mL E. coli UDG (New England Biolabs) for 10 minutes at 37° C. in buffer to create AP site containing DNA (see below for MALDI-TOF confirmation). The hairpin was then reacted with probe from a DMSO stock solution (final DMSO concentration <5%).
Procedure for assessing fluorescence response of probes: To assess the fluorescence response of the probes, 25 μM AP site containing DNA (oligo 15) was prepared in a 20 μL solution and allowed to react with 500 μM of each probe overnight. The DNA was then precipitated by the addition of 80 μL 0.33 M sodium acetate and 300 μL ethanol and centrifuged at 21,100 g for 1 hr at 4° C. The resulting DNA pellet was washed twice with 70% EtOH and re-suspended in buffer to a concentration of 2 μM. A portion of the DNA pellet was used for MALDI-TOF analysis. The emission spectra of the probe-oligonucleotide conjugate was measured and compared against a 2 μM solution of the free probe

AP-DNA = assay: Oxime formation kinetics of probe with AP-DNA; conditions: Tris buffer, probe concentration 10-100 μM
NTH1 = molecular target: T1, NTH1 (Homo sapiens, UniProt P78549); assay: NTH1 coupled assay with 5-hydroxycytosine DNA hairpin; conditions: NTH1 500 nM, 5hC DNA substrate 60 μM, CCVJ1 20 μM
T1 construct: purchased Novus biologics
T1 sequence (P78549 23-304): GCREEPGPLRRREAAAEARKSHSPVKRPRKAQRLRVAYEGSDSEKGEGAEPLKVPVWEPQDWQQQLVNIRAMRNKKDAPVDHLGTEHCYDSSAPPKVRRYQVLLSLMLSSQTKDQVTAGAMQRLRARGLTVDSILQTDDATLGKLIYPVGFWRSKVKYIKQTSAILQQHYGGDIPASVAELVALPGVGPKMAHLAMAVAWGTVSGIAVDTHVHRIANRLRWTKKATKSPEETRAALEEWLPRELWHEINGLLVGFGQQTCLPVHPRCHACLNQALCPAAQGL
Description: FIG. 15, panels A-G provides quantitative coupled assays using Compound (1) (CCJV1). Shown are data from reaction of lesion containing substrates with UNG and SMUG1 (5 nM) (panel A), MPG (100 nM) (panel B), NTH1 (500 nM) (panel C), OGG1 (100 nM) in real-time (panel D) with lesion containing DNA (2 μM) and CCVJ1 (20 μM) (panels A, B and D) or lesion containing DNA (60 μM) and CCVJ1 (20 μM) […]. […] Delay time tss of 25 minutes indicated with dotted line.
FIG. 16 provides time course of NTH1 (500 nM) with 5-hydroxycytosine containing DNA (60 μM) and Compound (1) (CCVJ1) (20 μM). […] Following a 10-minute incubation period, additional substrate was then added (20 μM) which yielded an increase in fluorescence.
Based on the results of our neighboring base effect study, several glycosylase oligonucleotide substrates were purchased or prepared in which the identity of the base lesion X was varied to correspond to the known activities of different target glycosylases (FIG. 15, panel E). For these studies human enzymes SMUG1/UNG, OGG1, MPG and NTH1, were chosen which represent a diverse array of human glycosylases. […] Assays were carried out in a 60 μL volume in a 384 well format on a microplate reader using a fluorescein filter set. For each enzyme, it was possible to observe a robust fluorescence signal (FIG. 15, panels A-D). […]

overall fold change of fluorescence with NTH1 (NTH1): 20 fold
Compound: N#C/C(=C\c1cc2c3c(c1)CCCN3CCC2)C(=O)NCCON [CCVJ1]
increase in fluorescence when bound to the AP site vs free probe ([1]; 17mer hairpin conjugate 2 μM vs free probe): 256 fold | overall increase in fluorescence relative to the probe alone, optimal neighboring bases ([1]; AP hairpin X=C, Y=G, Z=C): 508 fold | fluorescence light up response (summary) ([1]; relative to the unbound probe): 250-500 fold | lag time tss of UBER probe coupled assay (AP-DNA): 5 to 50 min
